Results: the supplement of paper PMC4862054

What was measured:
Settings in all cases: incubation time: 72 h
CAL-51 [1] = assay: normalised response (% of control), CellTox Green; higher = less cell death (100 = DMSO, 0 = benzethonium chloride kill control)
Method in brief: (§1)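 Breast cancer cell lines, seeded at 20 µl suspension per well, were incubated for 72 h in 384-well plates containing compound at 5 concentrations. These concentrations rose in 10-fold steps over a 10,000-fold range set for each compound. CellTox Green fluorescence (485/520 nm) was read, then CellTiter-Glo luminescence after 10 min at room temperature, and each plate was normalised to 0.1 % DMSO (100) and a positive kill control (0). Values are normalised signals, each at one concentration.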

HCC1937 [2] = assay: as above
Method in brief: as §1

MDA-MB-231 [3] = assay: as above
Method in brief: as §1

MFM-223 [4] = assay: as above
Method in brief: as §1

BT-474 [5] = assay: normalised response (% of control), CellTiter-Glo; higher = more viable cells (100 = DMSO, 0 = benzethonium chloride kill control)
Method in brief: as §1

BT-549 [6] = assay: as above
Method in brief: as §1

DU-4475 [7] = assay: as above
Method in brief: as §1

HCC1937 [8] = assay: as above
Method in brief: as §1

SK-BR-3 [9] = assay: as above
Method in brief: as §1

BT-474 [10] = assay: normalised response (% of control), CellTiter-Glo; higher = more viable cells (100 = DMSO, 0 = benzethonium chloride kill control); remark: listed apart in the source
Protocol: (§2)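 DSRT, 72 h incubation, CellTox Green / CellTiter-Glo readout. Signal is normalised to DMSO and benzethonium chloride controls. Value is the normalised response at the highest dose.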

BT-549 [11] = assay: as above; remark: listed apart in the source
Protocol: as §2

CAL-120 = assay: as above
Protocol: as §2

CAL-148 = assay: as above
Protocol: as §2

CAL-51 [12] = assay: as above
Protocol: as §2

CAL-85-1 = assay: as above
Protocol: as §2

DU-4475 [13] = assay: as above; remark: listed apart in the source
Protocol: as §2

HCC1143 = assay: as above
Protocol: as §2

HCC1599 = assay: as above
Protocol: as §2

HCC1937 [14] = assay: as above; remark: listed apart in the source
Protocol: as §2

HDQ-P1 = assay: as above
Protocol: as §2

Hs578T = assay: as above
Protocol: as §2

MCF-10A = assay: as above
Protocol: as §2

MDA-MB-231 [15] = assay: as above
Protocol: as §2

MDA-MB-436 = assay: as above
Protocol: as §2

MDA-MB-453 = assay: as above
Protocol: as §2

MDA-MB-468 = assay: as above
Protocol: as §2

MFM-223 [16] = assay: as above
Protocol: as §2

SK-BR-3 [17] = assay: as above; remark: listed apart in the source
Protocol: as §2

## N#Cc1ccc(COC[C@H]2O[C@@H](n3c(NCc4ccc(Cl)c(Cl)c4)nc4c(N)ncnc43)[C@H](O)[C@@H]2O)cc1 (1000 nM)
CAL-51 [1]
  normalised response: 119%
HCC1937 [2]
  normalised response: 90.4%
MDA-MB-231 [3]
  normalised response: 114%
MFM-223 [4]
  normalised response: 104%
BT-474 [5]
  normalised response: 81.8%
BT-549 [6]
  normalised response: 89.9%
DU-4475 [7]
  normalised response: 86%
HCC1937 [8]
  normalised response: 86.9%
SK-BR-3 [9]
  normalised response: 95.3%

## N#Cc1ccc(COC[C@H]2O[C@@H](n3c(NCc4ccc(Cl)c(Cl)c4)nc4c(N)ncnc43)[C@H](O)[C@@H]2O)cc1 (10000 nM)
CAL-51 [1]
  normalised response: 91.6%
HCC1937 [2]
  normalised response: 106%
MDA-MB-231 [3]
  normalised response: 105%
MFM-223 [4]
  normalised response: 2.84%
BT-474 [10]
  normalised response: 68.2%
BT-549 [11]
  normalised response: 61.8%
CAL-120
  normalised response: 83.7%
CAL-148
  normalised response: 83.7%
CAL-51 [12]
  normalised response: 88%
CAL-85-1
  normalised response: 86.3%
DU-4475 [13]
  normalised response: 65.6%
HCC1143
  normalised response: 66.2%
HCC1599
  normalised response: 65.7%
HCC1937 [14]
  normalised response: 51.6%
HDQ-P1
  normalised response: 69.6%
Hs578T
  normalised response: 78.2%
MCF-10A
  normalised response: 59.2%
MDA-MB-231 [15]
  normalised response: 74.5%
MDA-MB-436
  normalised response: 85.1%
MDA-MB-453
  normalised response: 75%
MDA-MB-468
  normalised response: 72.5%
MFM-223 [16]
  normalised response: 74.3%
SK-BR-3 [17]
  normalised response: 47.4%

## COc1cc(OC2CCN(C)CC2)ccc1Nc1ncc2c(n1)n(C1CCCC1)c(=O)n2C [AZ 3146] (1000 nM)
CAL-51 [1]
  normalised response: 51.4%
HCC1937 [2]
  normalised response: 88.2%
MFM-223 [4]
  normalised response: 101%
BT-474 [5]
  normalised response: 96.5%
BT-549 [6]
  normalised response: 104%
DU-4475 [7]
  normalised response: 94.6%
HCC1937 [8]
  normalised response: 97.2%
SK-BR-3 [9]
  normalised response: 74.6%

## COc1cc(OC2CCN(C)CC2)ccc1Nc1ncc2c(n1)n(C1CCCC1)c(=O)n2C [AZ 3146] (10000 nM)
CAL-51 [1]
  normalised response: 27.1%
HCC1937 [2]
  normalised response: -6.06%
MDA-MB-231 [3]
  normalised response: 81.8%
MFM-223 [4]
  normalised response: 104%
BT-474 [10]
  normalised response: 59.9%
BT-549 [11]
  normalised response: 64.3%
CAL-120
  normalised response: 81%
CAL-148
  normalised response: 58.7%
CAL-51 [12]
  normalised response: 48.9%
CAL-85-1
  normalised response: 51.7%
DU-4475 [13]
  normalised response: 79.1%
HCC1143
  normalised response: 70.4%
HCC1599
  normalised response: 37.8%
HCC1937 [14]
  normalised response: 70.3%
HDQ-P1
  normalised response: 70.6%
Hs578T
  normalised response: 63%
MCF-10A
  normalised response: 47.8%
MDA-MB-231 [15]
  normalised response: 62.3%
MDA-MB-436
  normalised response: 79.3%
MDA-MB-453
  normalised response: 95.7%
MDA-MB-468
  normalised response: 28.6%
MFM-223 [16]
  normalised response: 72.1%
SK-BR-3 [17]
  normalised response: 52.4%

## CN(C)c1nc(N(C)C)nc(N(C)C)n1 [Altretamine] (1000 nM)
CAL-51 [1]
  normalised response: 111%
HCC1937 [2]
  normalised response: 118%
MDA-MB-231 [3]
  normalised response: 110%
MFM-223 [4]
  normalised response: 99.7%
BT-474 [5]
  normalised response: 101%
BT-549 [6]
  normalised response: 103%
DU-4475 [7]
  normalised response: 98.9%
HCC1937 [8]
  normalised response: 99.4%
SK-BR-3 [9]
  normalised response: 107%

## CN(C)c1nc(N(C)C)nc(N(C)C)n1 [Altretamine] (10000 nM)
CAL-51 [1]
  normalised response: 109%
HCC1937 [2]
  normalised response: 104%
MDA-MB-231 [3]
  normalised response: 112%
MFM-223 [4]
  normalised response: 96.6%
BT-474 [10]
  normalised response: 98.7%
BT-549 [11]
  normalised response: 102%
CAL-120
  normalised response: 100%
CAL-148
  normalised response: 106%
CAL-51 [12]
  normalised response: 109%
CAL-85-1
  normalised response: 108%
DU-4475 [13]
  normalised response: 107%
HCC1143
  normalised response: 100%
HCC1599
  normalised response: 112%
HCC1937 [14]
  normalised response: 100%
HDQ-P1
  normalised response: 97.8%
Hs578T
  normalised response: 105%
MCF-10A
  normalised response: 107%
MDA-MB-231 [15]
  normalised response: 102%
MDA-MB-436
  normalised response: 107%
MDA-MB-453
  normalised response: 108%
MDA-MB-468
  normalised response: 104%
MFM-223 [16]
  normalised response: 106%
SK-BR-3 [17]
  normalised response: 108%

## O=C(/C=C/c1cccc(S(=O)(=O)Nc2ccccc2)c1)NO [Belinostat] (1000 nM)
CAL-51 [1]
  normalised response: 50.8%
HCC1937 [2]
  normalised response: 117%
MDA-MB-231 [3]
  normalised response: 22.3%
MFM-223 [4]
  normalised response: 78.5%
BT-474 [5]
  normalised response: 23.1%
BT-549 [6]
  normalised response: 59%
DU-4475 [7]
  normalised response: 23.1%
HCC1937 [8]
  normalised response: 69.9%
SK-BR-3 [9]
  normalised response: 15.7%

## O=P1(N(CCCl)CCCl)NCCCO1 (stereo not given) [Cyclophosphamide] (4000 nM)
CAL-51 [1]
  normalised response: 112%
HCC1937 [2]
  normalised response: 124%
MDA-MB-231 [3]
  normalised response: 113%
MFM-223 [4]
  normalised response: 94.8%
BT-474 [5]
  normalised response: 93.1%
BT-549 [6]
  normalised response: 103%
DU-4475 [7]
  normalised response: 104%
HCC1937 [8]
  normalised response: 99%
SK-BR-3 [9]
  normalised response: 107%

## C=C1C[C@@H]2[C@H](CC[C@]3(C)C(=O)CC[C@@H]23)[C@@]2(C)C=CC(=O)C=C12 [Exemestane] (1000 nM)
CAL-51 [1]
  normalised response: 106%
HCC1937 [2]
  normalised response: 121%
MDA-MB-231 [3]
  normalised response: 99.6%
MFM-223 [4]
  normalised response: 100%
BT-474 [5]
  normalised response: 103%
BT-549 [6]
  normalised response: 92.5%
DU-4475 [7]
  normalised response: 105%
HCC1937 [8]
  normalised response: 103%
SK-BR-3 [9]
  normalised response: 108%

## COc1cc2ncnc(Nc3ccc(F)c(Cl)c3)c2cc1OCCCN1CCOCC1 [Gefitinib] (1000 nM)
CAL-51 [1]
  normalised response: 108%
HCC1937 [2]
  normalised response: 123%
MDA-MB-231 [3]
  normalised response: 101%
MFM-223 [4]
  normalised response: 65.4%
BT-474 [5]
  normalised response: 101%
BT-549 [6]
  normalised response: 97.7%
DU-4475 [7]
  normalised response: 99.7%
HCC1937 [8]
  normalised response: 87.9%
SK-BR-3 [9]
  normalised response: 51.9%

## O=C(Nc1ccncc1)C(=O)c1cn(Cc2ccc(Cl)cc2)c2ccccc12 [Indibulin] (1000 nM)
CAL-51 [1]
  normalised response: 40.5%
HCC1937 [2]
  normalised response: 68.1%
MDA-MB-231 [3]
  normalised response: 51.6%
MFM-223 [4]
  normalised response: 71.8%
BT-474 [5]
  normalised response: 70.8%
BT-549 [6]
  normalised response: 42.8%
DU-4475 [7]
  normalised response: 91.8%
HCC1937 [8]
  normalised response: 73.9%
SK-BR-3 [9]
  normalised response: 33.2%
